Experimental data: patent US20160031868A1, “BENZIMIDAZOLONE DERIVATIVES AS BROMODOMAIN INHIBITORS” (GILEAD SCIENCES, INC., priority 2013, published 2016)
Where two headings read alike, the source gives them in different places.

Columns and labels:
BRD4-1 [1] = target: T1, BRD4-1 (Homo sapiens, UniProt O60885); test: Biochemical ALPHA assay: binding of BRD4_1 to acetylated histone H4 peptide; conditions: 200 nM H4 peptide, 15 nM BRD4_1, 60 min at 25 °C; geometric mean of min. four determinations
T1 construct: made in house; host or cells: Escherichia coli
Protocol: Binding of the bromodomain BRD4_I to an acetylated histone H4 peptide was measured using a bead based Amplified Luminescent Proximity Homogeneous Assay (ALPHA). The synthetic peptide containing amino acids 1-18 of histone H4 was acetylated at lysine 5, 8, 12, 16 and conjugated to biotin ([…]-GSGSK-biotin) was purchased from Millipore. BRD4_I was expressed and purified from Escherichia coli as an N-terminal Hiss-tagged protein. Nickel-Chelate ALPHA acceptor beads (Perkin Elmer) were used to specifically bind BRD4—1 and ALPHA streptavidin donor beads (Perkin Elmer) were used because they specifically recognized the biotinylated H4 peptide. […] Assays were performed in 50 mM Hepes (pH 7.5), 150 mM NaCl, 0.1 mg/ml BSA, 0.01% (v/v) Brij, 0.5% (v/v) DMSO, 200 nM H4 peptide and 15 nM of BRD4—1 protein. After an assay reaction time of 60 minutes at 25° C., binding was measured with 20 µg/ml streptavidin donor beads and 20 μg/ml nickel-chelate acceptor beads. ALPHA signal was detected on an Envision plate reader ([…]; Em: 570 nm; Ex time: 180 ms). Data were normalized based on a positive (2 μM I-BET) and negative (DMSO) controls and IC50 values were calculated from the fit of the dose-response curves to a four-parameter equation. All IC50 values represent geometric mean values of a minimum of four determinations. These assays generally produced results within 3-fold of the reported mean.

[2] = MT-4 proliferation assay in 384-well format (Cell Titer Glo); assay type: cell-based, human; conditions: human, MT-4 cells, read-out: CC50 MT4 384
Protocol: Compounds were tested in a standardized high-throughput 384-well assay format. Each compound was serially diluted 3-fold in 100% DMSO in polypropylene 384-well plates using a Biomek FX Workstation, and 0.4 μL compound added to an assay plate containing 40 μL RPMI media. Compounds were arranged in a horizontal pattern, with 10 concentrations per compound, and 8 compounds added per plate. Due to low DMSO tolerability, the final DMSO concentration never exceeded 0.5% (v/v). Each assay plate contained 10 μM Puromycin and 0.5% DMSO in RPMI-1640 as positive and negative controls respectively. MT-4 cells (HTLV-1 transformed, human T lymphoblastoid cells, NIH Aids Reagent program) were added in volumes of 35 μL per well and 2,000 cells per well using a Biotek uFlow Workstation (Biotek, Winooski, Vt.), and the plates subsequently incubated for 5 days at 37° C. in an incubator set at 5% CO2 and 90% humidity.
After 5 days, 22 μL Cell Titer Glo (Promega) was added to the assay plates with a Biotek uFlow Workstation. Plates were subsequently placed on a Perkin Elmer Envision Plate Reader for 5 minutes before the luminescence signal was read. CC50 values were calculated from the compound concentration that caused a 50% decrease in luminescence signal, a measure of toxicity, and calculated by non-linear regression using Pipeline Pilot software (Accelrys, San Diego, Calif.).

BRD4-1 [3] = target: T1, BRD4-1; test: Biochemical HTRF (TR-FRET) assay: BRD4-1 binding to acetylated histone H4 peptide; conditions: 200 nM H4 peptide, 60 nM BRD4-1, 60 min at 25 °C; geometric mean; read-out: IC50 HTBS BRD4-1 HTRF
Protocol: (§1) Binding of the two tandem bromodomains, BRD4 I and BRD4—2, to an acetylated histone H4 peptide were measured using a homogeneous time resolved fluorescence resonance energy transfer (TR-FRET) assay. The synthetic peptide containing amino acids 1-18 of histone H4 was acetylated at lysine 5, 8, 12, 16 and conjugated to biotin ([…]-GSGSK-biotin) was purchased from Millipore. BRD4_I and BRD4—2 were expressed and purified from Escherichia coli as N-terminal His6-tagged proteins. An XL665 labeled anti-His antibody (Cisbio) was used to specifically bind BRD4 and a cryptate labeled streptavidin protein was used because it specifically recognized the biotinylated H4 peptide. […] Assays were performed in 50 mM Hepes (pH 7.5), 150 mM NaCl, 0.1 mg/ml BSA, 0.01% (v/v) Brij, 0.5% (v/v) DMSO and 200 nM H4 peptide at the following concentrations for each BRD4 isoform: 60 nM BRD4—1 and 120 nM BRD4—2. After an assay reaction time of 60 minutes at 25° C., binding was measured with 2 nM cryptate labeled streptavidin and 10 nM anti-His-XL665 antibody. TR-FRET signal was detected on an Envision plate reader (Ex: 320 nm; Em: 615/665 nm; 100 μs delay and 200 μs read window). Data were normalized based on a positive (2 μM I-BET) and negative (DMSO) controls and IC50 values were calculated from the fit of the dose-response curves to a four-parameter equation. All IC50 values represent geometric mean values of a minimum of four determinations. These assays generally produced results within 3-fold of the reported mean.

BRD4-2 [4] = target: T2, BRD4-2 (Homo sapiens, UniProt O60885); test: Biochemical HTRF (TR-FRET) assay: BRD4-2 binding to acetylated histone H4 peptide; conditions: 200 nM H4 peptide, 120 nM BRD4-2, 60 min at 25 °C; geometric mean; read-out: IC50 HTBS BRD4-2 HTRF
T2 construct: made in house; host or cells: Escherichia coli
Protocol: as §1

BRD4-1 [5] = target: T1, BRD4-1; test: BRD4-1 Ligand KI assay (TR-FRET displacement of Cy5 labeled probe); assay type: binding; conditions: 10 nM labeled ligand, 2 nM BRD4-1; Ki from IC50 by Cheng and Prusoff; read-out: BRD4-1 Ligand K1
Protocol: Binding of the two tandem bromodomains, BRD4-I and BRD4-2, to a Cy5 labeled probe/ligand (Compound 201-A) were measured using a homogeneous time resolved fluorescence resonance energy transfer (TR-FRET) assay.
(§2) The labeled ligand specifically binds BRD4-1 and BRD4-2 and can be displaced by a small molecule inhibitor that shares a similar or overlapping binding site. BRD4-I and BRD4-2 were expressed and purified from Escherichia coli as N-terminal His6-tagged proteins. A Eu-cryptate labeled anti-His antibody (Perkin Elmer) was used to specifically bind BRD4. […] Assays were performed in 50 mM Hepes (pH 7.5), 150 mM NaCl, 0.1 mg/ml BSA, 0.01% (v/v) Brij, 0.5% (v/v) DMSO and 10 nM labeled ligand at the following concentrations for each BRD4 isoform: 2 nM BRD4-1 and 0.5 nM BRD4-2. After an assay reaction time of 60 minutes at 25° C., binding was measured with 2 nM Eu-cryptate labeled anti-His antibody. TR-FRET signal was detected on an Envision plate reader (Ex: 320 nm; Em: 615/665 nm; 100 μs delay and 200 μs read window). Data were normalized based on a positive (2 μM I-BET) and negative (DMSO) controls and IC50 values were calculated from the fit of the dose-response curves to a four-parameter equation. All IC50 values represent geometric mean values of a minimum of four determinations. The IC50 values were converted to Ki values (dissociation constant for BRD4-inhibitor complex) using the Cheng and Prusoff equation for a competitive inhibitor mode of action. These assays generally produced results within 3-fold of the reported mean.

[6] = system: c-Myc produced in MM1S cells; test: c-Myc down regulation assay (MSD ELISA) in MM1S cells; assay type: cell-based; conditions: Homo sapiens, MM1.S, 24 hrs incubation, geometric mean, read-out: cMYC EC50
Protocol: An enzyme linked immunosorbent assay using the Meso Scale Diagnostic (MSD) technology was used to detect levels of c-Myc produced in MM1S cells (ATCC). MM1S cells were cultured in RPMI-1640 media (Corning), supplemented with 10% FBS (Hyclone), 1% penicillin-streptomycin (Cellgro), 2-mercaptoethanol (Gibco) and seeded onto 384-tissue culture treated filter binding plates (Millipore) at a density of 40K cells/well containing titrations of small molecule inhibitors or DMSO (0.4%) in a volume of 100 μl of media. After an incubation time of 24 hrs, cells were lysed (1× lysis buffer (Thermo) supplemented with protease and phosphatase inhibitor cocktail (Thermo)) and the plates centrifuged (1000 rpm, 1 min) to capture c-Myc on MSD plates coated with a monoclonal c-Myc antibody (Origene). Assay wells were washed (3× Invitrogen wash buffer) and probed with a polyclonal c-Myc antibody (Abcam) and MSD detection antibody solution in order to detect levels of c-Myc on the MSD platform. c-Myc capture was reported in pg/ml based on a standard curve using recombinant c-Myc protein (Prosci). EC50 values were calculated from the fit of the dose-response curves to a four-parameter equation. All EC50 values represent geometric mean values of a minimum of four determinations. These assays generally produced results within 3-fold of the reported mean.

BRD4-2 [7] = target: T2, BRD4-2; test: BRD4-2 Ligand KI assay (TR-FRET displacement of Cy5 labeled probe); assay type: binding; conditions: 10 nM labeled ligand, 0.5 nM BRD4-2; Ki from IC50 by Cheng and Prusoff; read-out: BRD4-2 Ligand K2
Protocol: as §2, with “BRD4-I” for “The labeled ligand specifically binds BRD4-1 and BRD4-2 and can be displaced by a small molecule inhibitor that shares a similar or overlapping binding site. BRD4-I”, “action.” for “action. These assays generally produced results within 3-fold of the reported mean.”

[8] = Table 1, 50% decrease in luminescence signal
[9] = Table 2, 50% decrease in luminescence signal

IC50 (BRD4-1 [1]) [nM]	IC50 (BRD4-1 [3]) [nM]	IC50 (BRD4-2 [4]) [nM]	Ki (BRD4-1 [5]) [nM]	EC50 [6] [nM]	Ki (BRD4-2 [7]) [nM]	Structure (SMILES)	CC50 at 5 days [2, 8] [nM]	CC50 at 5 days [2, 9] [nM]
119	295	–	–	–	–	Cc1noc(C)c1-c1cc(-c2c(C)noc2C)c2[nH]c(=O)[nH]c2c1 [Example 3, 4,6-bis(3,5-dimethylisoxazol-4-yl)-1H-benzo[d]imidazol-2(3H)-one]	196	–
–	–	–	12.8	104	5	Cc1noc(C)c1-c1cc(C(O)(c2ccc(F)cn2)c2cc(F)ccc2F)c2[nH]c(=O)[nH]c2c1 (centres unmarked) [Example 41, 4-((2,5-difluorophenyl)(5-fluoropyridin-2-yl)(hydroxy)methyl)-6-(3,5-dimethylisoxazol-4-yl)-1H-benzo[d]imidazol-2(3H)-one]	–	47.3
–	–	–	35.2	217	43.8	Cc1noc(C)c1-c1cc(C(O)(CCC(F)(F)F)c2ccccn2)c2[nH]c(=O)[nH]c2c1 (centres unmarked) [Example 140, 6-(3,5-dimethylisoxazol-4-yl)-4-(4,4,4-trifluoro-1-hydroxy-1-(pyridin-2-yl)butyl)-1H-benzo[d]imidazol-2(3H)-one]	–	78.3
–	–	–	69.9	74.4	5.3	Cc1cccc(C(O)(c2cccc(C)n2)c2cc(-c3c(C)noc3C)cc3[nH]c(=O)[nH]c23)n1 [Example 134]	–	19.1
–	–	–	12.9	13.2	3	Cc1noc(C)c1-c1cc(-c2c(C3CC3)n[nH]c2C2CC2)c2[nH]c(=O)[nH]c2c1 [Example 23, 4-(3,5-dicyclopropyl-1H-pyrazol-4-yl)-6-(3,5-dimethylisoxazol-4-yl)-1H-benzo[d]imidazol-2(3H)-one]	–	9.1
–	–	–	81.6	107	16	Cc1cccc(C(O)(c2ccccn2)c2cc(-c3c(C)noc3C)cc3[nH]c(=O)[nH]c23)n1 (centres unmarked) [Example 147, 6-(3,5-dimethylisoxazol-4-yl)-4-(hydroxy(6-methylpyridin-2-yl)(pyridin-2-yl)methyl)-1H-benzo[d]imidazol-2(3H)-one]	–	56.5

The next lines start with the molecule.

Structure (SMILES)	IC50 (BRD4-1 [1]) [nM]	IC50 (BRD4-1 [3]) [nM]	IC50 (BRD4-2 [4]) [nM]	Ki (BRD4-1 [5]) [nM]	EC50 [6] [nM]	Ki (BRD4-2 [7]) [nM]	CC50 at 5 days [2, 8] [nM]	CC50 at 5 days [2, 9] [nM]
Cc1ccc2ncccc2c1-c1cc(-c2c(C)noc2C)cc2[nH]c(=O)n(C)c12 [Example 7, 5-(3,5-dimethylisoxazol-4-yl)-1-methyl-7-(6-methylquinolin-5-yl)-1H-benzo[d]imidazol-2(3H)-one]	37.3	121	101	–	–	–	17.5	–
Cc1noc(C)c1-c1cc(-c2c(C)noc2C)c2oc(=O)[nH]c2c1 [Example 10, 5,7-bis(3,5-dimethylisoxazol-4-yl)benzo[d]oxazol-2(3H)-one]	196	313	396	–	–	–	1030	–
Cc1noc(C)c1-c1cc(-c2c(C)noc2C)c2c(c1)[nH]c(=O)n2C [Example 9]	270	497	227	–	–	–	204	–
Cc1noc(C)c1-c1cc(S(=O)(=O)NC2CCCC2)c2[nH]c(=O)[nH]c2c1 [Example 1, N-cyclopentyl-6-(3,5-dimethylisoxazol-4-yl)-2-oxo-2,3-dihydro-1H-benzo[d]imidazole-4-sulfonamide]	–	1410	1070	–	–	–	1120	–
